Experiment [1] relates to C. albicans biofilms. The experiment can be described thus: Mono species Candida biofilm MIC, XTT assay. The class given is cell-based, Candida albicans. Particulars: for Minimum inhibitory concentration of 48 h Candida biofilms: 48 h C. albicans biofilms; for Biofilm MIC90: 24 h C. albicans biofilms, 24 h drug exposure, XTT. As for the experimental part:
(§1) For instance, we have previously shown the resistance of Candida biofilms against amphotericin and caspofungin. Therefore, next using standard biofilm assays we have established in our laboratory, we examined the effect of SM21 against Candida biofilms. In brief, Candida cells were grown in SDA medium at 37° C. for 18 h. Then a loopful of the yeast was inoculated into the yeast nitrogen base (YNB; Difco) medium supplemented with 50 mM glucose in a rotary shaker at 75 rpm. After overnight broth culture, the yeasts were harvested in the late exponential growth phase and washed twice with 20 ml of phosphate buffer saline (PBS; pH 7.2. 0.1 M) prior to use in the biofilm studies. Candida biofilms were developed according to a previously published protocol. In brief, washed yeast cells were resuspended in YNB supplemented with 100 mM glucose and adjusted to an optical density of 0.38 at 520 nm (1×10^7 cells/ml). The standard cell suspension was used immediately to develop biofilms on commercially available presterilized, polystyrene, 96-well plate (IWAKI, Tokyo, Japan). At first, 100 μl of standardized cell suspension (1×10^7 cells/ml) was pipetted into each well of a microtiter plate and incubated for 1.5 h at 37° C. in a shaker at 75 rpm to permit yeast adherence to the well surface (adherence phase). For controls, a well of each microtiter plate was handled in an identical fashion except that no Candida suspension was added. Following the adhesion phase, the cell suspensions were aspirated, and each well washed with 100 μl of PBS to remove loosely adherent cells. 200 μl of YNB with 100 mM glucose were then pipetted into each of the washed wells and the plates incubated at 37° C. in a shaker at 75 rpm for 24 or 48 h. After biofilm growth phase microscopic examination of the cultures were performed to rule out contamination. Then, the suspending medium was aspirated and biofilms were washed with 100 μl PBS to remove the nonadherent cells. The stock solutions were diluted twofold with RPMI 1640 supplemented with 2% glucose to obtain SM21 concentration from 100 to 0.2 μg/ml drug concentrations. In parallel, other antifungal agents such as caspofungin (100 to 0.1 μg/ml) and amphotericin B (240 μg/ml to 0.225 μg/ml) was also prepared as describe above. A total of 100 μl of drug solution was added to the microtiter plate containing Candida biofilms. Biofilms were then incubated at 37° C. for 24 h with the antifungals and afterwards metabolic activity of fungal cells was determined by the XTT [2,3-bis(2-methoxy-4-nitro-5-sulfophenyl)-2H-tetrazolium-5-carboxanilide sodium salt] assay (17, 28). Candida biofilm MIC90 was defined as the lowest drug concentration with 90% reduction in opacity compared with the drug free control. Each experiment was repeated three times with four replicates.

In experiment [2] the test system is C. krusei biofilms. The experiment can be described thus: Mono species Candida biofilm MIC, XTT assay. It is filed as cell-based. Particulars: 48 h C. krusei biofilms. How it is done:
as §1

The test system of experiment [3] is C. glabrata biofilms. The experiment can be described thus: Mono species Candida biofilm MIC, XTT assay. It is filed as cell-based. Particulars: 48 h C. glabrata biofilms. How it is done:
as §1

Experiment [4] concerns C. albicans SC5314 and C. albicans ATCC 90028. The experiment can be described thus: Antifungal activity compared with caspofungin and amphotericin B (FIG. 2, CLSI M44-A disc diffusion). It is filed as cell-based, Candida albicans. An excerpt: (§2) Oral Biosciences laboratory has one of the largest collections of fungal isolates, particular that of Candida species in the world. In our previous studies, we have found multidrug resistant clinical isolates of Candida species against existing antifungals. In particular, some of these strains are resistant to best antifungal agents to date such as caspofungin, amphotericin B and fluconazole. Therefore, we performed antifungal susceptibility testing for SM21 against these drug resistant Candida isolates suing CLSI M27A brothmicrodultion assay and CLSI M44-A disc diffusion assay.

For experiment [5], the system named is C. parapsilosis. The experiment can be described thus: Antifungal susceptibility (MIC/MFC), CLSI criteria. The class given is cell-based, Candida parapsilosis. Particulars: C. parapsilosis ATCC; 0.5 McFarland inoculum (10^6 cells/ml). How it is done:
(§3) Antifungal activity of the small molecules was evaluated using USA standards, Clinical and Laboratory Standards Institute (CLSI) criteria. In brief, inocula from 24 h Candida cultures on Sabourauds's dextore agar were standardized to a turbidity equivalent of 0.5 McFarland standards at 520 nm with a spectrophotometer. The suspensions were further diluted in Rosewell Park Memorial Institute (RPMI) 1640 medium (Life technologies, New York, USA) to yield an inoculum concentration of approximately 0.5 1×10^3 to 2.5 1×10^3 cells/ml. Minimum inhibitory concentration (MIC) and minimum fungicidal concentration (MFC) assay was performed in 96-well plates (Iwaki, Tokyo, Japan) and each of the Candida species was exposed to a double dilution of SM21. Amphotericin B was used as a positive control. All the experiments were preformed three occasions with duplicates for all isolates. The plates were incubated at 35° C. for 48 h to evaluate MIC. In the case of Cryotococcus neoformans, reading were taken after 72 h. Aforementioned assay was performed for C. albicans ATCC 90028, C. albicans SC5314 and 10 C. albicans clinical isolates. Moreover, MIC/MFC determination was carried out for other fungal species such as C. glabrata, C. krusei, C. tropicalis, C. parapsilosis, C. neoformans, Aspergillus fumigates and Penicillium marneffei. […]

In experiment [6] the test system is Penicillium marneffei. The experiment can be described thus: Antifungal susceptibility (MIC/MFC), CLSI criteria. As to conditions: 0.5 McFarland inoculum (10^6 cells/ml). It is filed as cell-based. As for the experimental part: (§4) Antifungal activity of the small molecules was evaluated using USA standards, Clinical and Laboratory Standards Institute (CLSI) criteria. In brief, inocula from 24 h Candida cultures on Sabourauds's dextore agar were standardized to a turbidity equivalent of 0.5 McFarland standards at 520 nm with a spectrophotometer. The suspensions were further diluted in Rosewell Park Memorial Institute (RPMI) 1640 medium (Life technologies, New York, USA) to yield an inoculum concentration of approximately 0.5 1×10^3 to 2.5 1×10^3 cells/ml. Minimum inhibitory concentration (MIC) and minimum fungicidal concentration (MFC) assay was performed in 96-well plates (Iwaki, Tokyo, Japan) and each of the Candida species was exposed to a double dilution of SM21. Amphotericin B was used as a positive control. All the experiments were preformed three occasions with duplicates for all isolates. The plates were incubated at 35° C. for 48 h to evaluate MIC. In the case of Cryotococcus neoformans, reading were taken after 72 h. Aforementioned assay was performed for C. albicans ATCC 90028, C. albicans SC5314 and 10 C. albicans clinical isolates. Moreover, MIC/MFC determination was carried out for other fungal species such as C. glabrata, C. krusei, C. tropicalis, C. parapsilosis, C. neoformans, Aspergillus fumigates and Penicillium marneffei. […] Next using dose-dependent assay we tested that MIC/MFC of SM21 from 10^3 cells/ml to 10^7 cells/ml of C. albicans (Table 2). Each of the foregoing experiment was repeated on three different occasions.

The subject of experiment [7] is Aspergillus fumigatus. The experiment can be described thus: Antifungal susceptibility (MIC/MFC), CLSI criteria. The class given is cell-based. Particulars: 0.5 McFarland inoculum (10^6 cells/ml). How it is done: as §4
Experiment [8] has as its system resistant isolate T-1549. The experiment can be described thus: Antifungal activity compared with caspofungin and amphotericin B (FIG. 2, CLSI M44-A disc diffusion). It is filed as cell-based, C. guilliermondii. As to conditions: resistant isolate T-1549 (FIG. 2C).
From the text: as §2

Experiment [9] relates to C. albicans. The experiment can be described thus: Dose-dependent assay of MIC/MFC at different cell densities. The class given is cell-based, Candida albicans. On the set-up: unit not given here. How it is done: as §4
The subject of experiment [10] is C. tropicalis. The experiment can be described thus: Antifungal susceptibility (MIC/MFC), CLSI criteria. The class given is cell-based, Candida tropicalis. As to conditions: C. tropicalis ATCC; 0.5 McFarland inoculum (10^6 cells/ml). As for the experimental part: as §3
The test system of experiment [11] is C. glabrata. The experiment can be described thus: Antifungal susceptibility (MIC/MFC), CLSI criteria. The class given is cell-based, Candida glabrata. Particulars: C. glabrata ATCC; 0.5 McFarland inoculum (10^6 cells/ml). How it is done:
as §3

For experiment [12], the system named is C. neoformans. The experiment can be described thus: Antifungal susceptibility (MIC/MFC), CLSI criteria, reading after 72 h. As to conditions: 0.5 McFarland inoculum (10^6 cells/ml). It is filed as cell-based, Cryptococcus neoformans. As for the experimental part: as §3
In experiment [13] the test system is C. krusei. The experiment can be described thus: Antifungal susceptibility (MIC/MFC), CLSI criteria. It is filed as cell-based, Candida krusei. As to conditions: C. krusei ATCC; 0.5 McFarland inoculum (10^6 cells/ml). How it is done:
as §3

Experiment [14] has as its system C. albicans. The experiment can be described thus: Antifungal susceptibility (MIC/MFC), CLSI criteria, 96-well double dilution. The class given is cell-based, Candida albicans. As to conditions: 0.5 McFarland inoculum (10^6 cells/ml). How it is done:
as §4

The mark [15] stands for this setting: C. albicans ATCC 90028, CLSI quality control strain (FIG. 2B).

Four compounds from US9642829B2, “Antifungal compound and uses thereof” (The University of Hong Kong, priority 2012, dated 2017) can be followed below.

Take `Nc1nc(=O)[nH]cc1F` [5-fluorocytosine]: the “Minimum inhibitory concentration of 48 h Candida biofilms” value (“Minimum inhibitory concentration” for short) was determined as 420 µg/mL in [1], 250 µg/mL in [2] and 420 µg/mL in experiment [3].

Consider `C[C@@H]1[C@H](O)[C@@H](C)/C=C/C=C/C=C/C=C/C=C/C=C/C=C/[C@H](O[C@@H]2O[C@H](C)[C@@H](O)[C@H](N)[C@@H]2O)C[C@@H]2O[C@](O)(C[C@@H](O)C[C@@H](O)[C@H](O)CC[C@@H](O)C[C@@H](O)CC(=O)O[C@H]1C)C[C@H](O)[C@H]2C(=O)O` [Amphotericin B, reference compound], for which the “Susceptibility of the strain to the agent” value in experiment [4] (setting [15]) and in experiment [4] (C. albicans SC5314 (FIG. 2A)) was “susceptible” throughout. Also, the “Susceptibility (MIC90)” value in [5] is 0.8 µg/mL; in experiment [6], 0.05 µg/mL; in [7] it was 1.56 µg/mL; in experiment [10] it was 0.8 µg/mL; in experiment [11], 0.4 µg/mL; in experiment [12] it was 0.4 µg/mL. Also, the “Susceptibility (MIC90)” value in [13] was 0.4 µg/mL; in experiment [14] (C. albicans ATCC 90028), 0.2 µg/mL; in experiment [14] (C. albicans CL1), 0.2 µg/mL; in experiment [14] (C. albicans CL2), 0.4 µg/mL; in experiment [14] (C. albicans CL3), 0.4 µg/mL; in [14] (C. albicans CL4), 0.2 µg/mL. For the same compound, the “Susceptibility (MIC90)” value in experiment [14] (C. albicans CL5) was determined as 0.2 µg/mL; in experiment [14] (C. albicans CL6) it was 0.2 µg/mL; in experiment [14] (C. albicans CL7) it was 0.2 µg/mL; in experiment [14] (C. albicans CL8) it was 0.4 µg/mL; in [14] (C. albicans CL9), 0.4 µg/mL; in experiment [14] (C. albicans CL10), 0.2 µg/mL. In addition, in [14] (C. albicans SC5314), the “Susceptibility (MIC90)” value turned out to be 0.2 µg/mL. For the same compound, in experiment [8], the “Effectiveness against resistant isolate” value was “only SM21 was effective”. Also, the MIC/MFC in [9] (C. albicans 10^4 cells/ml) is 0.2; in experiment [9] (C. albicans 10^5 cells/ml), 0.2; in experiment [9] (C. albicans 10^6 cells/ml), 0.2; in experiment [9] (C. albicans 10^7 cells/ml), 0.8. Further, the “Biofilm MIC90” value in [1] amounted to 32 µg/mL. For the same compound, the “Minimum inhibitory concentration” value is 32 µg/mL in experiment [1], 32 µg/mL in experiment [2] and 16 µg/mL in [3].

As to `CC[C@H](C)C[C@H](C)CCCCCCCCC(=O)N[C@H]1C[C@@H](O)[C@@H](NCCN)NC(=O)[C@@H]2[C@@H](O)CCN2C(=O)[C@H]([C@H](O)CCN)NC(=O)[C@H]([C@H](O)[C@@H](O)c2ccc(O)cc2)NC(=O)[C@@H]2C[C@@H](O)CN2C(=O)[C@H]([C@@H](C)O)NC1=O` [Caspofungin], the “Susceptibility of the strain to the agent” value in experiment [4] (setting [15]) and in [4] (C. albicans SC5314 (FIG. 2A)) was “susceptible” in each case. In [8], the “Effectiveness against resistant isolate” value is reported as “only SM21 was effective”. For the same compound, in experiment [1], the “Biofilm MIC90” value is 50 µg/mL. For the same compound, the “Minimum inhibitory concentration” value in experiment [1], in experiment [2] and in experiment [3] was 100 µg/mL each time.

As for `CC(=O)N1CCN(c2ccc(OCC3COC(Cn4ccnc4)(c4ccc(Cl)cc4Cl)O3)cc2)CC1` (stereo not shown) [Ketoconazole], the “Minimum inhibitory concentration” value in experiment [1], in [2] and in experiment [3] was 64 µg/mL in each case.
